{
  "source": "patent US4626283A",
  "about": "“Corrosion and marine growth inhibiting compositions” (Engelhard Corporation, priority 1985, dated 1986)",
  "key": {"[1]": {"assay": "Electrochemical testing (Tafel Plot) of corrosion current and corrosion potential"}, "[2]": {"assay": "Salt spray test, alkyd formulations (Example VI, FIG. 3)", "details": "alkyd formulation, ASTM B117-73, in words", "procedure": "One coat of paint was applied using a Henry K. Gardner Laboratory draw-down, with either a 6 mil or 8 mil draw-down blade. The draw-down speed was 1 inch per second. Such coat of paint was allowed to cure for two weeks under ambient conditions, in the case of both alkyd and latex paints. The dried coating thickness was measured with Elcometer Coating thickness gauge, Model #150/-FNIE. Acceptable thicknesses of the cured film were 2.5-3.5 mils.\nStormer viscosity (ASTM D562-55) for all alkyd paints was greater than 90, and for all latex paints was greater than 80."}, "[3]": {"format": "physicochemical", "details": "simulated rain solution saturated with the pigment; electrolyte pH about 4.2"}, "[4]": {"details": "water"}, "[5]": {"assay": "Primary skin irritation", "format": "in vivo", "details": "0.5 g in saline paste; for Skin irritation rating: in words"}, "[6]": {"assay": "Draize eye irritation", "format": "in vivo", "details": "100 mg; for Eye irritation rating: in words"}, "[7]": {"assay": "Acute oral toxicity", "format": "in vivo", "details": "5 g/kg in corn oil"}, "[8]": {"assay": "Salt spray test, alkyd formulations (Example V, FIG. 1)"}, "[9]": {"details": "overall conclusion in words"}, "[10]": {"details": "Tafel Plot, simulated acid rain saturated with pigment, SAE-1020 steel, 5.16 square centimeters"}, "[11]": {"details": "against saturated calomel electrode, simulated acid rain saturated with pigment"}},
  "note": "Values joined by “and” are separate entries in the source; they are usually repeats but may differ in a detail not shown here. Equal entries are not always repeated. Where two headings read alike, the source gives them in different places.",
  "data": [
    {"compound": "CCNCC.O=C([O-])CCCCCCCCCCC(=O)[O-].[Zn+2]", "note": "[Compound 12, Zinc Dodecanedioate Diethylamine]", "values": [
      {"measurement": "Corrosion current (Icorr)", "setting": "[1]", "result": "197 microamps and > 100 microamps"}
    ]},
    {"compound": "O=C([O-])CCCCCCCCCCC(=O)[O-].OCCN(CCO)CCO.[Zn+2]", "note": "[Compound 10, Zinc Dibasate Triethanolamine]", "values": [
      {"measurement": "Corrosion current (Icorr)", "setting": "[1]", "result": 93, "unit": "microamps"},
      {"measurement": "Corrosion potential (Ecorr)", "setting": "[1]", "result": -580, "unit": "millovolts"},
      {"measurement": "Salt spray durability, comparison", "setting": "[2]", "result": "superior to \"Zinc Yellow\" (zinc chromate) in salt spray durability"}
    ]},
    {"compound": "Zinc Dibasate-1,2-Diaminopropane [8^(3)]", "values": [
      {"measurement": "Corrosion current (Icorr)", "setting": "[1]; [10]", "result": 90, "unit": "microamps"},
      {"measurement": "Corrosion potential (Ecorr)", "setting": "[1]; [11]", "result": -570, "unit": "millovolts"},
      {"measurement": "pH", "setting": "[3]", "result": 7.55}
    ]},
    {"compound": "NCCN.O=C([O-])CCCC(=O)[O-].[Zn+2]", "note": "[Compound 2, Zinc Glutarate Ethylenediamine]", "values": [
      {"measurement": "Solubility", "setting": "[4]", "result": ".16"},
      {"measurement": "Solubility description", "setting": "[4]", "result": "SS (key: PINS: practically insoluble (<.1 g/100cc H2 O); SS: slightly soluble (.1 to 1 g/100cc H2 O); MS: moderately soluble)"}
    ]},
    {"compound": "Zinc Quinizarinate Ethylenediamine [Compound 22]", "values": [
      {"measurement": "Corrosion current (Icorr)", "setting": "[1]; [10]", "result": 84, "unit": "microamps"},
      {"measurement": "Corrosion potential (Ecorr)", "setting": "[1]; [11]", "result": -570, "unit": "millovolts"}
    ]},
    {"compound": "NCCN.O=C([O-])CCCCCCCCC(=O)[O-].[Zn+2]", "note": "[Compound 6, Zinc Sebacate Ethylenediamine]", "values": [
      {"measurement": "Corrosion current (Icorr)", "setting": "[1]", "result": "170 microamps and > 100 microamps"},
      {"measurement": "Corrosion potential (Ecorr)", "setting": "[1]", "result": -462, "unit": "millovolts"},
      {"measurement": "Skin irritation score", "setting": "[5]", "result": 0.13},
      {"measurement": "Skin irritation rating", "setting": "[5]", "result": "minimally irritating"},
      {"measurement": "Eye irritation score", "setting": "[6]", "result": 37.2},
      {"measurement": "Eye irritation rating", "setting": "[6]", "result": "severely irritating"}
    ]},
    {"compound": "Zinc Dibasate Pyridine [Compound 23]", "values": [
      {"measurement": "Corrosion current (Icorr)", "setting": "[1]; [10]", "result": 60, "unit": "microamps"},
      {"measurement": "Corrosion potential (Ecorr)", "setting": "[1]; [11]", "result": -550, "unit": "millovolts"},
      {"measurement": "pH", "setting": "[3]", "result": 7.0}
    ]},
    {"compound": "NCCN.O=C([O-])c1cccc(C(=O)[O-])c1.[Zn+2]", "note": "[Compound 18, Zinc Isophthalate Ethylenediamine]", "values": [
      {"measurement": "Salt spray durability, comparison", "setting": "[2]", "result": "superior to \"Zinc Yellow\" (zinc chromate) in salt spray durability"},
      {"measurement": "Solubility", "setting": "[4]", "result": 1.13}
    ]},
    {"compound": "NCCN.O=C([O-])CCCCC(=O)[O-].[Zn+2]", "note": "[Compound 3, Zinc Adipate Ethylenediamine]", "values": [
      {"measurement": "Corrosion current (Icorr)", "setting": "[1]; [10]", "result": 78, "unit": "microamps"},
      {"measurement": "mortality", "setting": "[7]; in vivo, 5000 mg/kg", "result": 0, "unit": "%"},
      {"measurement": "Skin irritation score", "setting": "[5]", "result": 0.42},
      {"measurement": "Skin irritation rating", "setting": "[5]", "result": "minimally irritating"},
      {"measurement": "Eye irritation score", "setting": "[6]", "result": 19.0},
      {"measurement": "Eye irritation rating", "setting": "[6]", "result": "moderately-irritating"},
      {"measurement": "Salt spray durability, comparison", "setting": "[2]", "result": "superior to \"Zinc Yellow\" (zinc chromate) in salt spray durability"}
    ]},
    {"compound": "NCCN.O=C([O-])c1ccc(C(=O)[O-])cc1.[Zn+2]", "note": "[Compound 19, Zinc Terephthalate Ethylenediamine]", "values": [
      {"measurement": "Solubility", "setting": "[4]", "result": ".66"},
      {"measurement": "Solubility description", "setting": "[4]", "result": "SS (key: PINS: practically insoluble (<.1 g/100cc H2 O); SS: slightly soluble (.1 to 1 g/100cc H2 O); MS: moderately soluble)"}
    ]},
    {"compound": "Zinc Dibasate Dimethylamine [Compound 21]", "values": [
      {"measurement": "Corrosion current (Icorr)", "setting": "[1]", "result": 82, "unit": "microamps"},
      {"measurement": "Corrosion potential (Ecorr)", "setting": "[1]", "result": -610, "unit": "millovolts"}
    ]},
    {"compound": "NCCN.O=C([O-])CCCCCCCC(=O)[O-].[Zn+2]", "note": "[Compound 5, Zinc Azelate Ethylenediamine]", "values": [
      {"measurement": "Corrosion current (Icorr)", "setting": "[1]; [10]", "result": 82, "unit": "microamps"},
      {"measurement": "Corrosion potential (Ecorr)", "setting": "[1]; [11]", "result": -667, "unit": "millovolts"},
      {"measurement": "Effect of kaolin on salt spray performance", "setting": "[8]; alkyd formulation, combination with kaolin, in words", "result": "anomolously reduced the performance"},
      {"measurement": "Solubility", "setting": "[4]", "result": ".21"},
      {"measurement": "Solubility description", "setting": "[4]", "result": "SS (key: PINS: practically insoluble (<.1 g/100cc H2 O); SS: slightly soluble (.1 to 1 g/100cc H2 O); MS: moderately soluble)"}
    ]},
    {"compound": "Zinc Dibasate Diethylamine [Compound 9]", "values": [
      {"measurement": "Corrosion current (Icorr)", "setting": "[1]", "result": 30, "unit": "microamps"},
      {"measurement": "Corrosion current (Icorr), second test", "setting": "[1]", "result": "177 microamps and > 100 microamps"},
      {"measurement": "Corrosion potential (Ecorr)", "setting": "[1]", "result": -570, "unit": "millovolts"},
      {"measurement": "Oral acute toxicity, mortality", "setting": "[7]", "result": 0, "unit": "%"},
      {"measurement": "Eye irritation score", "setting": "[6]", "result": 5.5},
      {"measurement": "Eye irritation rating", "setting": "[6]", "result": "mildly irritating"}
    ]},
    {"compound": "Zinc Thiodiphenolate Propylenediamine [Compound 20]", "values": [
      {"measurement": "Corrosion current (Icorr)", "setting": "[1]", "result": 46, "unit": "microamps"},
      {"measurement": "Corrosion potential (Ecorr)", "setting": "[1]", "result": -560, "unit": "millovolts"}
    ]},
    {"compound": "CC(N)CN.O=C([O-])CCCCC(=O)[O-].[Zn+2]", "note": "[Compound 4, Zinc Adipate Propylenediamine]", "values": [
      {"measurement": "Salt spray durability, comparison", "setting": "[2]", "result": "superior to \"Zinc Yellow\" (zinc chromate) in salt spray durability"}
    ]},
    {"compound": "Zinc Thiodiphenolate Ethylenediamine [Compound 14]", "values": [
      {"measurement": "Corrosion current (Icorr)", "setting": "[1]", "result": 52.5, "unit": "microamps"},
      {"measurement": "Corrosion potential (Ecorr)", "setting": "[1]", "result": -570, "unit": "millovolts"},
      {"measurement": "Eye irritation score", "setting": "[6]", "result": 53.7},
      {"measurement": "Eye irritation rating", "setting": "[6]", "result": "extremely irritating"},
      {"measurement": "Effect of kaolin on salt spray performance", "setting": "[8]", "result": "enhanced the performance"},
      {"measurement": "Toxicity characteristics", "setting": "[9]", "result": "unacceptable toxicity characteristics"}
    ]},
    {"compound": "NCCN.O=C([O-])CCCCCCCCCCC(=O)[O-].[Zn+2]", "note": "[Compound 11, Zinc Dodecanedioate Ethylenediamine]", "values": [
      {"measurement": "Corrosion current (Icorr)", "setting": "[1]; [10]", "result": "130 microamps and > 100 microamps"},
      {"measurement": "Salt spray durability, comparison", "setting": "[2]", "result": "superior to \"Zinc Yellow\" (zinc chromate) in salt spray durability"},
      {"measurement": "Solubility", "setting": "[4]", "result": ".015"},
      {"measurement": "Solubility description", "setting": "[4]", "result": "PINS (key: PINS: practically insoluble (<.1 g/100cc H2 O); SS: slightly soluble (.1 to 1 g/100cc H2 O); MS: moderately soluble)"}
    ]},
    {"compound": "Zinc Sulfonyldiphenolate Ethylenediamine [Compound 15]", "values": [
      {"measurement": "Corrosion current (Icorr)", "setting": "[1]", "result": "170 microamps and > 100 microamps"},
      {"measurement": "Corrosion potential (Ecorr)", "setting": "[1]", "result": -592, "unit": "millovolts"},
      {"measurement": "Skin irritation score", "setting": "[5]", "result": 0.08},
      {"measurement": "Skin irritation rating", "setting": "[5]", "result": "non-irritating"},
      {"measurement": "Eye irritation score", "setting": "[6]", "result": 31.0},
      {"measurement": "Eye irritation rating", "setting": "[6]", "result": "severely irritating"}
    ]},
    {"compound": "NCCN.O=C([O-])c1ccccc1C(=O)[O-].[Zn+2]", "note": "[Compound 17, Zinc Phthalate Ethylenediamine]", "values": [
      {"measurement": "Corrosion current (Icorr)", "setting": "[1]", "result": 83, "unit": "microamps"},
      {"measurement": "Skin irritation score", "setting": "[5]", "result": 0.00},
      {"measurement": "Skin irritation rating", "setting": "[5]", "result": "non-irritating"},
      {"measurement": "Solubility", "setting": "[4]", "result": ".02"},
      {"measurement": "Solubility description", "setting": "[4]", "result": "PINS (key: PINS: practically insoluble (<.1 g/100cc H2 O); SS: slightly soluble (.1 to 1 g/100cc H2 O); MS: moderately soluble)"}
    ]},
    {"compound": "Zinc Dibasate Propylenediamine [Compound 8]", "values": [
      {"measurement": "Solubility", "setting": "[4]", "result": ".16"},
      {"measurement": "Solubility description", "setting": "[4]", "result": "SS (key: PINS: practically insoluble (<.1 g/100cc H2 O); SS: slightly soluble (.1 to 1 g/100cc H2 O); MS: moderately soluble)"}
    ]},
    {"compound": "Zinc Dibasate Piperidine [Compound 24]", "values": [
      {"measurement": "Corrosion current (Icorr)", "setting": "[1]", "result": 40, "unit": "microamps"},
      {"measurement": "Corrosion potential (Ecorr)", "setting": "[1]", "result": -610, "unit": "millovolts"}
    ]}
  ]
}
